# Measured values from patent US20230381170A1, “METHOD FOR TREATING ALS/FTD THROUGH DEGRADATION OF RNA REPEAT EXPANSION” (University of Florida Research Foundation, Incorporated, priority 2020, published 2023).
# Where two headings read alike, the source gives them in different places.
# Assays:
# [1] = test system: r(G4C2)8; assay: Biolayer interferometry (BLI) binding
# Procedure: Biolayer Interferometry (BLI). BLI studies were performed similarly as previously described (12) using an Octet RED96. Briefly, 5′-biotinylated nucleic acids were folded by heating at 95° C. for 4 min in 10 mM sodium phosphate buffer, pH 7, followed by slowly cooling to room temperature. Then, to the folded RNA were added the following components: 1.386 mL 1×DPBS (21-031-CV, Corning), 180 μL freshly prepared 1% (w/v) BSA, 36 μL 1% (v/v) Tween-20, and 18 μL DMSO (1% final concentration) in a final volume of 1.8 mL. The final concentration of RNA was 0.5 μM. Separately, serial dilutions of the compound of interest were prepared in the same buffer.
# The resulting curves were analyzed and processed using Octet Data Analysis software version 9.1 by subtracting the response of the sensors recorded upon incubation with solutions containing compound and no RNA (parallel reference). The data were then fitted assuming reversible binding using the entire time interval for association and dissociation using either 1:1 or the 2:1 heterogeneous binding curve fitting model. The reported Kd,n, kon,n and koff,n values represent the average of two independent experiments.
# [2] = test system: transcriptome of iPSCs derived from healthy donors; assay: RNA-seq in iPSCs from healthy donors; type: cell-based, human; details: 50 nM
# [3] = test system: Poly(GP), Poly(GA), TDP-43 inclusions; assay: Immunohistochemistry of sagittal brain sections of +/+PWR500 mice; type: in vivo, mouse; details: cortex
# Procedure: (§1) Therapeutic Efficacy in a c9ALS/FD mouse model. All animal studies were completed as approved by the Scripps Florida Institutional Animal Care and Use Committee. A total of 24 mice (12+/+PWR500 [7 Male and 5 Female] and 12 WT [6 Male and 6 Female]) mice, age- and gender-matched and ranging in age from 18-22 weeks old were used in therapeutic efficacy studies (Table 6). Mice were anesthetized by intraperitoneal (i.p.) injection of 10 mg/mL Ketamine:1 mg/mL Xylazine solution. Intracerebroventricular (ICV) stereotactic injections of 10 μL of 7 (33 nmol) were administered into the right ventricle using the following coordinates: 0.2 mm posterior and 1.0 mm lateral to the right from the bregma and 3 mm deep. Mice were treated with 7 or vehicle consisting of 1% DMSO in Saline. Three weeks post-treatment, mice were euthanized, and tissue was harvested for study.
# Immunohistochemistry. Tissue was excised postmortem, and brain tissue was sliced at the midline. The right hemisphere was stored in 10% neutral buffered formalin for 48 h. Tissue processing, embedding and sectioning were carried out by the Scripps Florida's Histology Core. Formalin-fixed tissue was placed on a paraffin processor (Sakura Tissue-Tek VIPS), embedded in paraffin, sectioned a 4 μm, and mounted on plus slides. The slides were optimized with the appropriate primary antibody dilutions (see below) on the Leica BOND-MAX platform followed by the Leica Refine Detection Kit containing the secondary polymer, DAB chromagen and counterstain. After dehydration in graded alcohols and cleared in xylene, the slides were cover slipped with a permanent mounting medium, Cytoseal 60 (Thermo Scientific). Images were taken in the right hemisphere of the cortex due north of the hippocampus with 5 images were taken per slice. Average number of aggregates or inclusions per cell was assessed for each sample and reported. Statistical analysis was measured using an unpaired t-test with Welch's correction. Immunohistochemical staining and analyses were completed blinded.
# [4] = test system: r(G4C2)exp-containing nuclear foci; assay: RNA FISH of foci in brain of +/+PWR500 mice; type: in vivo, mouse; details: compared to vehicle
# Procedure: as §1
# Fluorescence in situ Hybridization (FISH) with Immunofluorescence (IF). Tissues were excised, and brain tissue was sliced at the midline. The right hemisphere was fresh frozen with OCT in 2-methylbutane in liquid nitrogen, and 10 μm thick sections were prepared using a cryostat. The slides were then stained as previously described (36). […] Average number of foci per nuclei was assessed for each sample and reported. Statistical analysis was measured using an unpaired t-test with Welch's correction.
# [5] = test system: Nup98; assay: Nup98 by structured illumination microscopy in patient-derived iPSNs; type: cell-based, human; details: 50 nM
# Procedure: Nuclei Isolation and Super Resolution Structured Illumination Microscopy. iPSC-derived spinal neurons were generated according to the previously published diMNs protocol (37). On day 15 and 18 of differentiation, […] G4C2 repeat-targeting ASO was added to media as previously described (59). For compound treatment, 50 nM 7 was added to media on days 15, 18, 21, 24, 27, and 30 of differentiation. On day 32 of differentiation, nuclei isolation was performed using the Nuclei Pure Prep Nuclei Isolation Kit (Sigma Aldrich) as previously described (68). Isolated nuclei were spun onto collagen coated slides and immunostained following standard protocols as previously described (68). Primary antibodies: 1:250 rat anti-Nup98 (Abcam), 1:500 chicken anti-NeuN (Millipore); secondary antibodies: […] Alexa 488 (Invitrogen), goat anti-chicken Alexa 647 (Invitrogen). NeuN positive nuclei were imaged by super resolution structured illumination microscopy (SIM) using a Zeiss ELYRA S.1 as previously described (14). Next, 50 nuclei per iPSC line/treatment group were analyzed using the 3D suite plugin in FIJI. The average number of spots from the 50 nuclei for each cell line and treatment group was used for statistical analyses. […] Quantification is presented as violin plots to represent the full variability of all nuclei analyzed.
dissociation rate (koff) compared to 2 ([1]; BLI),"Kd ([1]; BLI, read-out: Kd) [nM]","Kd ([1]; BLI, read-out: Kd, 2) [nM]",bound more avidly to r(G4C2)8 than 2 ([1]; Kd relative to 2) [fold],SMILES,changes in the transcriptome [2],Poly(GA) aggregates ([3]; compared to vehicle),Poly(GP) aggregates ([3]; compared to vehicle),TDP-43 inclusions ([3]; relative to vehicle),number of r(G4C2)exp-containing nuclear foci ([4]; brain),abundance of antisense r(G2C4)exp foci [4],Nup98 abundance [5]
slower dissociation rate,4 ± 0.07,900,~13,Cc1c2ccncc2c(C)c2c1[nH]c1ccc(OCCOCCOCCNCCOCCOCCOc3ccc4[nH]c5c(C)c6ccncc6c(C)c5c4c3)cc12 [Compound 3],,,,,,,
,,,,CCOC(=O)C1=C(Nc2ccccc2)S/C(=C\c2ccc(OCCOCCOCCOCCNC(=O)CCC(=O)N(CCOCCOCCOc3ccc4[nH]c5c(C)c6ccncc6c(C)c5c4c3)CCOCCOCCOc3ccc4[nH]c5c(C)c6ccncc6c(C)c5c4c3)c(O)c2)C1=O [Compound 7],no changes,significant decrease,significant decrease,decreased,decreased,No effect,reversed the loss of Nup98
